Assay results from ChEMBL document CHEMBL1201862, “PubChem BioAssay data set” (2004).
Where “and” joins values, the source holds several entries; their conditions need not be identical. Equal values may be shown once.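 Briefly, cells in 96-well plates were exposed to five compound concentrations for 48 h, and endpoints were estimated by linear interpolation. Here, GI50 denotes the concentration required for 50% inhibition of growth.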 Calls of active or inactive are those of the source. No stated cut-off is given here; in the data, active = GI50 up to about 1.1 µM and inactive = higher.

Tests used:
Test in all cases: DTP human tumour cell line panel, 48 h
OVCAR-5 = test system: OVCAR-5
COLO 205 = test system: COLO 205
UO-31 = test system: UO-31
SR = test system: SR
UACC-62 = test system: UACC-62
EKVX = test system: EKVX
SK-MEL-5 = test system: SK-MEL-5
ACHN = test system: ACHN
SF-268 = test system: SF-268
A549 = test system: A549
BT-549 = test system: BT-549
HCT-116 = test system: HCT-116
SN12C = test system: SN12C
HOP-62 = test system: HOP-62
MOLT-4 = test system: MOLT-4
SK-MEL-2 = test system: SK-MEL-2
UACC-257 = test system: UACC-257
OVCAR-8 = test system: OVCAR-8
OVCAR-3 = test system: OVCAR-3
MDA-N = test system: MDA-N
DU-145 = test system: DU-145
SK-MEL-28 = test system: SK-MEL-28
U-251 = test system: U-251
HOP-92 = test system: HOP-92
NCI-H460 = test system: NCI-H460
IGROV-1 = test system: IGROV-1
Malme-3M = test system: Malme-3M
SK-OV-3 = test system: SK-OV-3
NCI-H23 = test system: NCI-H23
MCF7 = test system: MCF7
HL-60 = test system: HL-60
M14 = test system: M14
CCRF-CEM = test system: CCRF-CEM
NCI/ADR-RES = test system: NCI/ADR-RES
HCC 2998 = test system: HCC 2998
SNB-19 = test system: SNB-19
A498 = test system: A498
SF-539 = test system: SF-539
T47D = test system: T47D
NCI-H226 = test system: NCI-H226
HT-29 = test system: HT-29
LOX IMVI = test system: LOX IMVI
MDA-MB-231 = test system: MDA-MB-231
RXF 393 = test system: RXF 393
Hs-578T = test system: Hs-578T
786-0 = test system: 786-0
SW-620 = test system: SW-620
PC-3 = test system: PC-3
SNB-75 = test system: SNB-75
NCI-H522 = test system: NCI-H522
CAKI-1 = test system: CAKI-1
RPMI-8226 = test system: RPMI-8226
TK-10 = test system: TK-10
MDA-MB-435 = test system: MDA-MB-435
HCT-15 = test system: HCT-15
KM12 = test system: KM12
SF-295 = test system: SF-295
OVCAR-4 = test system: OVCAR-4
K562 = test system: K562

Which GI50 (OVCAR-5) does the source give for `CC1(C)[C@H](O)CC[C@]2(C)C3=CC[C@@]4(C)[C@@H]5C[C@](C)(CO)CC[C@]5(C)CC[C@]4(C)C3=CC[C@@H]12` here?
Its GI50 is > 100 µM (inactive).

And the GI50 (COLO 205)?
Its GI50 is 3.23 µM (inactive).

And the GI50 (UO-31)?
The GI50 was 1.98 µM (inactive).

And the GI50 (SR)?
Its GI50 is 1.75 µM (inactive).

And the GI50 (UACC-62)?
Its GI50 is > 100 µM (inactive).

What about the GI50 (EKVX) of the same compound?
Its GI50 is > 100 µM (inactive).

And the GI50 (SK-MEL-5)?
Its GI50 is > 100 µM (inactive).

What about the GI50 (ACHN) of the same compound?
The GI50 was 2.13 µM (inactive).

What about the GI50 (SF-268) of the same compound?
The GI50 was > 100 µM (inactive).

What about the GI50 (A549) of the same compound?
The GI50 was 1.75 µM (inactive).

And the GI50 (BT-549)?
The GI50 was > 100 µM (inactive).

And the GI50 (HCT-116)?
The GI50 was 2.01 µM (inactive).

What about the GI50 (SN12C) of the same compound?
Its GI50 is 2.1 µM (inactive).

What about the GI50 (HOP-62) of the same compound?
Its GI50 is > 100 µM (inactive).

What about the GI50 (MOLT-4) of the same compound?
Its GI50 is > 100 µM (inactive).

And the GI50 (SK-MEL-2)?
The GI50 was > 100 µM (inactive).

What about the GI50 (UACC-257) of the same compound?
The GI50 was > 100 µM (inactive).

What about the GI50 (OVCAR-8) of the same compound?
Its GI50 is 2.07 µM (inactive).

And the GI50 (OVCAR-3)?
The GI50 was 1.79 µM (inactive).

And the GI50 (MDA-N)?
The GI50 was > 100 µM (inactive).

And the GI50 (DU-145)?
The GI50 was > 100 µM (inactive).

What about the GI50 (SK-MEL-28) of the same compound?
Its GI50 is > 100 µM (inactive).

What about the GI50 (U-251) of the same compound?
The GI50 was 1.84 µM (inactive).

What about the GI50 (HOP-92) of the same compound?
The GI50 was > 100 µM (inactive).

What about the GI50 (NCI-H460) of the same compound?
The GI50 was 1.91 µM (inactive).

What about the GI50 (IGROV-1) of the same compound?
Its GI50 is > 100 µM (inactive).

What about the GI50 (Malme-3M) of the same compound?
The GI50 was > 100 µM (inactive).

What about the GI50 (SK-OV-3) of the same compound?
The GI50 was > 100 µM (inactive).

What about the GI50 (NCI-H23) of the same compound?
Its GI50 is > 100 µM (inactive).

What about the GI50 (MCF7) of the same compound?
Its GI50 is > 100 µM (inactive).

What about the GI50 (HL-60) of the same compound?
Its GI50 is > 100 µM (inactive).

And the GI50 (M14)?
Its GI50 is > 100 µM (inactive).

What about the GI50 (CCRF-CEM) of the same compound?
The GI50 was 1.63 µM (inactive).

Which results are given for `COC(=O)CCC(C)[C@H]1CCC2C3C(C[C@H](OC(C)=O)[C@@]21C)[C@@]1(C)CCC2(C[C@H]1C[C@H]3OC(C)=O)OOC1(CCC(C)CC1)OO2` (stereo partly specified)?
GI50 (OVCAR-5): > 100 µM (inactive); GI50 (SR): 4.55 µM (inactive) and 2.46 µM (inactive); GI50 (UACC-62): < 0.01 µM (active); GI50 (SK-MEL-5): 15.7 µM (inactive) and 9.79 µM (inactive); GI50 (ACHN): 10.1 µM (inactive) and 6.9 µM (inactive); GI50 (NCI/ADR-RES): > 100 µM (inactive) and 67.9 µM (inactive); GI50 (HCT-116): 5.41 µM (inactive) and 2.77 µM (inactive); GI50 (SN12C): 34 µM (inactive) and 33.4 µM (inactive); GI50 (HCC 2998): 51.3 µM (inactive); GI50 (SNB-19): 75 µM (inactive); GI50 (OVCAR-3): 7.1 µM (inactive) and 6.27 µM (inactive); GI50 (A498): > 100 µM (inactive); GI50 (MDA-N): 27.4 µM (inactive) and 15.7 µM (inactive); GI50 (SF-539): > 100 µM (inactive) and 58.6 µM (inactive); GI50 (T47D): 10.5 µM (inactive); GI50 (SK-MEL-28): > 100 µM (inactive); GI50 (U-251): 9.16 µM (inactive) and 5.16 µM (inactive); GI50 (NCI-H226): 56.6 µM (inactive) and 31.8 µM (inactive); GI50 (HT-29): 50.5 µM (inactive) and 55.7 µM (inactive); GI50 (LOX IMVI): 7.8 µM (inactive) and 5.15 µM (inactive); GI50 (Malme-3M): 9.51 µM (inactive) and 17.9 µM (inactive); GI50 (SK-OV-3): > 100 µM (inactive); GI50 (MDA-MB-231): 14 µM (inactive) and 20.2 µM (inactive); GI50 (M14): 32.4 µM (inactive) and 18.2 µM (inactive); GI50 (RXF 393): 72.3 µM (inactive); GI50 (CCRF-CEM): 6.38 µM (inactive) and 4.59 µM (inactive)

`COc1ccc2c3c([nH]c2c1)[C@H](C=C(C)C)N1C(=O)[C@@H]2CCCN2C(=O)[C@@H]1C3` [FUMITREMORGIN] was tested. Which GI50 (OVCAR-5) did it give?
Its GI50 is > 100 µM (inactive).

What about the GI50 (Hs-578T) of the same compound?
The GI50 was 50.9 µM (inactive).

What about the GI50 (COLO 205) of the same compound?
Its GI50 is > 100 µM (inactive).

And the GI50 (UO-31)?
Its GI50 is > 100 µM (inactive).

And the GI50 (SR)?
Its GI50 is > 100 µM (inactive).

And the GI50 (786-0)?
The GI50 was 48 µM (inactive).

What about the GI50 (SW-620) of the same compound?
The GI50 was > 100 µM (inactive).

What about the GI50 (UACC-62) of the same compound?
Its GI50 is 87.5 µM (inactive).

And the GI50 (EKVX)?
The GI50 was > 100 µM (inactive).

And the GI50 (ACHN)?
Its GI50 is 56 µM (inactive).

And the GI50 (PC-3)?
The GI50 was > 100 µM (inactive).

And the GI50 (SF-268)?
Its GI50 is 44 µM (inactive).

And the GI50 (A549)?
Its GI50 is > 100 µM (inactive).

What about the GI50 (NCI/ADR-RES) of the same compound?
Its GI50 is > 100 µM (inactive).

What about the GI50 (BT-549) of the same compound?
Its GI50 is > 100 µM (inactive).

What about the GI50 (HCT-116) of the same compound?
Its GI50 is > 100 µM (inactive).

What about the GI50 (SN12C) of the same compound?
Its GI50 is > 100 µM (inactive).

And the GI50 (HCC 2998)?
Its GI50 is 37.2 µM (inactive).

What about the GI50 (HOP-62) of the same compound?
The GI50 was 47 µM (inactive).

And the GI50 (SNB-19)?
Its GI50 is > 100 µM (inactive).

What about the GI50 (MOLT-4) of the same compound?
The GI50 was > 100 µM (inactive).

What about the GI50 (SK-MEL-2) of the same compound?
Its GI50 is > 100 µM (inactive).

And the GI50 (UACC-257)?
The GI50 was > 100 µM (inactive).

And the GI50 (OVCAR-8)?
The GI50 was 64.4 µM (inactive).

What about the GI50 (OVCAR-3) of the same compound?
The GI50 was > 100 µM (inactive).

And the GI50 (SNB-75)?
Its GI50 is 21.7 µM (inactive).

What about the GI50 (NCI-H522) of the same compound?
Its GI50 is > 100 µM (inactive).

And the GI50 (A498)?
The GI50 was > 100 µM (inactive).

What about the GI50 (SF-539) of the same compound?
The GI50 was 29.6 µM (inactive).

What about the GI50 (T47D) of the same compound?
Its GI50 is > 100 µM (inactive).

What about the GI50 (DU-145) of the same compound?
Its GI50 is > 100 µM (inactive).

What about the GI50 (SK-MEL-28) of the same compound?
The GI50 was 22.2 µM (inactive).

What about the GI50 (U-251) of the same compound?
The GI50 was 73.1 µM (inactive).

What about the GI50 (HOP-92) of the same compound?
Its GI50 is 38.7 µM (inactive).

What about the GI50 (CAKI-1) of the same compound?
Its GI50 is > 100 µM (inactive).

What about the GI50 (NCI-H226) of the same compound?
Its GI50 is > 100 µM (inactive).

What about the GI50 (RPMI-8226) of the same compound?
The GI50 was > 100 µM (inactive).

And the GI50 (NCI-H460)?
The GI50 was > 100 µM (inactive).

And the GI50 (HT-29)?
Its GI50 is > 100 µM (inactive).

And the GI50 (LOX IMVI)?
The GI50 was > 100 µM (inactive).

And the GI50 (TK-10)?
Its GI50 is 29.1 µM (inactive).

And the GI50 (IGROV-1)?
Its GI50 is > 100 µM (inactive).

What about the GI50 (Malme-3M) of the same compound?
Its GI50 is 78.3 µM (inactive).

What about the GI50 (SK-OV-3) of the same compound?
Its GI50 is 29.6 µM (inactive).

What about the GI50 (NCI-H23) of the same compound?
Its GI50 is > 100 µM (inactive).

And the GI50 (MDA-MB-435)?
The GI50 was > 100 µM (inactive).

What about the GI50 (HCT-15) of the same compound?
Its GI50 is over 100 µM.

What about the GI50 (MCF7) of the same compound?
The GI50 was > 100 µM (inactive).

And the GI50 (KM12)?
The GI50 was > 100 µM (inactive).

What about the GI50 (HL-60) of the same compound?
Its GI50 is > 100 µM (inactive).

And the GI50 (MDA-MB-231)?
The GI50 was 70.8 µM (inactive).

What about the GI50 (SF-295) of the same compound?
The GI50 was 51.3 µM (inactive).

And the GI50 (M14)?
Its GI50 is > 100 µM (inactive).

What about the GI50 (RXF 393) of the same compound?
Its GI50 is 38.1 µM (inactive).

What about the GI50 (CCRF-CEM) of the same compound?
Its GI50 is > 100 µM (inactive).

And the GI50 (OVCAR-4)?
The GI50 was > 100 µM (inactive).

And the GI50 (K562)?
Its GI50 is > 100 µM (inactive).
